Columns and labels:
[1] = tested on: NF-κB in RAW-Blue™ Cells (RAW 264.7, endogenous TLR7 and TLR2); assay: RAW-Blue Cells NF-κB/AP-1 inducible SEAP reporter assay; assay type: cell-based, mouse; conditions: murine monocytic macrophage cell line RAW 264.7, 24 hours, OD at 655 nm; FIGS. 5A, 5B
Experimental: (§1) Some conjugated compounds of the invention were tested for their ability to activate TLR7 and TLR2 receptor signaling. Cell-based assays were carried out using TLR7 and TLR2 reporter cell lines (InvivoGen). The reporter cell lines are engineered HEK293 cells, a human embryonic kidney cell line (ATCC, CRL-1573) that stably express either murine TLR7 (HEK-Blue™ mTLR7) or human TLR7 (HEK-Blue™ hTLR7) or murine TLR2 (HEK-Blue™ mTLR2) or human TLR2 (HEK-Blue™ hTLR2) with an NF-κB-inducible secreted embryonic alkaline phosphatase (SEAP) as the reporter gene. The SEAP reporter gene is placed under the control of the NF-κB and AP-inducible promoter. Stimulation with the corresponding TLR ligand activates NF-κB and AP-1, which induces the production of SEAP. Detection of SEAP is measured following culturing cells in HEK-Blue™ Detection media (InvivoGen). HEK-Blue™ Detection contains a SEAP substrate, which upon hydrolysis by SEAP produces a colorimetric change allowing for detection of SEAP as the protein is secreted. […] These assays were carried out using RAW-Blue™ Cells (InvivoGen), derived from RAW 264.7 mouse leukemic monocytic macrophage cell line (ATCC, CRL 2278) stably overexpressing a NF-κB/AP-1 inducible SEAP reporter constructs.
(§2) To perform the assay, cells were seeded on 96 well microliter plates at 50,000 or 100,000 cells per well for HEK-Blue™ Cells and RAW-Blue™ Cells respectively, and cultured at 37° C. in the presence of the conjugated compounds. The conjugated compounds were prepared as follows: First, stock solutions of the small molecule conjugated compounds of the invention were prepared in ethanol or water to a concentration of 10 mg/ml. A working dilution of the conjugated TLR7-TLR2 small molecules was made up in water and added to cells at a final range of concentrations from 10 μg/mL to 10 pg/ml. The working dilutions of the conjugated TLR7-TLR2 small molecules as the stated concentrations were directly added to the reporter cell lines and incubated at 37° C. for 24 hours. After 24 hours of incubation, the effect on reporter gene activity was determined by reading the OD at 655 nm using iMark™ Microplate Reader (BIO-RAD).
(§3) The conjugated compounds were tested alone for their ability to specifically activate TLR7 and TLR2, alongside the known TLR7 activators R848 or CL264 (InvivoGen) and the TLR2 agonists Pam2CSK4 or Pam3CSK4 (InvivoGen). The specificity of the TLR activity was determined by use of reporter cell lines to the other TLRs (data not shown). […] The molecules show a tendency to activate mouse TLR7 with greater sensitivity than human TLR7. […] Furthermore, dose-dependent responses of the conjugated compounds indicate significant TLR activities of TLR7 and TLR2 compared to the corresponding controls.

murine TLR2 = biological target: T1, murine TLR2 (Mus musculus, UniProt Q9QUN7); assay: HEK-Blue mTLR2 NF-κB/AP-1 SEAP reporter cell assay; assay type: cell-based; conditions: HEK-Blue mTLR2 reporter cells, 10 μg/mL to 10 pg/ml, 24 hours, OD at 655 nm; FIG. 4
T1 construct: host or cells: HEK293 (HEK-Blue mTLR2)
Experimental: as §1, §2, §3

murine TLR7 = biological target: T2, murine TLR7 (Mus musculus, UniProt P58681); assay: HEK-Blue mTLR7 NF-κB/AP-1 SEAP reporter cell assay; assay type: cell-based; conditions: HEK-Blue mTLR7 reporter cells, 10 μg/mL to 10 pg/ml, 24 hours, OD at 655 nm; FIGS. 2A, 2B
T2 construct: host or cells: HEK293 (HEK-Blue mTLR7)
T2 sequence (P58681 27-1050): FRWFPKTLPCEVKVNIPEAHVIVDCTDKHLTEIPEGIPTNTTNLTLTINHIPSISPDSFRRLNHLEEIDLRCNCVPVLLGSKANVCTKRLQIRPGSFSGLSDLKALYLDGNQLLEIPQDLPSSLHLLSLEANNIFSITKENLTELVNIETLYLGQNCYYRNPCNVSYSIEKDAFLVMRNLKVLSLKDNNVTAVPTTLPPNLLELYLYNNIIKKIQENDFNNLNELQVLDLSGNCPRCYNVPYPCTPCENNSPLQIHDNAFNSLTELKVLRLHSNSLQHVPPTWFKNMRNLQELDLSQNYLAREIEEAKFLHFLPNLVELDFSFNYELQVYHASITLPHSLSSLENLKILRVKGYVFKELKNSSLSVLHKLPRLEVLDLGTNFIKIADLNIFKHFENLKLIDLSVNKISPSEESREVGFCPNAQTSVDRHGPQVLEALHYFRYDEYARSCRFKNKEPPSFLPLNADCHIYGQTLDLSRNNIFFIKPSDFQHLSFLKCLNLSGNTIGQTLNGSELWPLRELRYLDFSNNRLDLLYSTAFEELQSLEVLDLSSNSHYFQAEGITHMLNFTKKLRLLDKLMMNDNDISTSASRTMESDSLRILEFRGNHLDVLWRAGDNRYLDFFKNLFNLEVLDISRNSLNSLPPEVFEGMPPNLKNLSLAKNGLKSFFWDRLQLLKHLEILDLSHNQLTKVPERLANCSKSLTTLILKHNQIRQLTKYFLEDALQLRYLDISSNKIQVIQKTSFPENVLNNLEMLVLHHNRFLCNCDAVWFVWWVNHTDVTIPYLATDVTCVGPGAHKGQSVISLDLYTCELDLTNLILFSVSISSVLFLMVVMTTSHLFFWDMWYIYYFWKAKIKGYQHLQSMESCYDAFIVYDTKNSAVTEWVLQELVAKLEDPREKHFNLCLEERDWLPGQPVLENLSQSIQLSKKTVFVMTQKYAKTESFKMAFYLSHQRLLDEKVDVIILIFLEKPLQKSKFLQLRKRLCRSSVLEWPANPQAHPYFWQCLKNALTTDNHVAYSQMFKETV
Experimental: as §1, §2, §3

human TLR7 = biological target: T3, human TLR7 (Homo sapiens, UniProt Q9NYK1); assay: HEK-Blue hTLR7 NF-κB/AP-1 SEAP reporter cell assay; assay type: cell-based; conditions: HEK-Blue hTLR7 reporter cells, 10 μg/mL to 10 pg/ml, 24 hours, OD at 655 nm; FIGS. 1A, 1B
T3 construct: host or cells: HEK293 (HEK-Blue hTLR7)
T3 sequence (Q9NYK1 27-1049): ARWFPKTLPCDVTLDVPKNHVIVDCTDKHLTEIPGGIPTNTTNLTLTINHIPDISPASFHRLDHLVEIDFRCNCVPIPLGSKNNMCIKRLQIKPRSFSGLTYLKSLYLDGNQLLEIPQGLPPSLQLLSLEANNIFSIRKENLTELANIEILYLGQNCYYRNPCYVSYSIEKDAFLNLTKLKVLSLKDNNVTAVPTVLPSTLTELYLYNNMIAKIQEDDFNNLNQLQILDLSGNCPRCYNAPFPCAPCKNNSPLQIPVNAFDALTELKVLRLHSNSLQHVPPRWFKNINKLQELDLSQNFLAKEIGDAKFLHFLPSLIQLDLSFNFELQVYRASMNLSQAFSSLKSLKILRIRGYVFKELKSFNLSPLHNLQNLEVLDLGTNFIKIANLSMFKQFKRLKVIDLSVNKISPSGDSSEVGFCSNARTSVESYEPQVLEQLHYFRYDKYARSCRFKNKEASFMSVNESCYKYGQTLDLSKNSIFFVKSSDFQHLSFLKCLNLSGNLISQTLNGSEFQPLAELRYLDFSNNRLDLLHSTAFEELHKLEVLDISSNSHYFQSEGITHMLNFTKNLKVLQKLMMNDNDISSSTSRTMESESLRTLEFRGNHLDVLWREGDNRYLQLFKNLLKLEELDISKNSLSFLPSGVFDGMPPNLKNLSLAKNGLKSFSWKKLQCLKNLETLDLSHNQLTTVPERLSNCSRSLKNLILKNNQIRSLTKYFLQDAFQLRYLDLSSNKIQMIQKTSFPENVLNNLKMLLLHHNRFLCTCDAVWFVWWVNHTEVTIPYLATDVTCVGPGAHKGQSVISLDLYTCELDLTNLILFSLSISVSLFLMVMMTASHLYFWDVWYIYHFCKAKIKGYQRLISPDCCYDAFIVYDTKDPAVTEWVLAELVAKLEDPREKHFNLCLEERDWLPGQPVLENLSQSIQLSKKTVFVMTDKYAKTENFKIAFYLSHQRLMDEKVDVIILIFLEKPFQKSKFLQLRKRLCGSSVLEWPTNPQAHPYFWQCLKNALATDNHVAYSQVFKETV
Experimental: as §1, §2, §3

human TLR2 = biological target: T4, human TLR2 (Homo sapiens, UniProt O60603); assay: HEK-Blue hTLR2 NF-κB/AP-1 SEAP reporter cell assay; assay type: cell-based; conditions: HEK-Blue hTLR2 reporter cells, 10 μg/mL to 10 pg/ml, 24 hours, OD at 655 nm; FIGS. 3A, 3B
T4 construct: host or cells: HEK293 (HEK-Blue hTLR2)
Experimental: as §1, §2, §3

T1 sequence (Q9QUN7 25-784): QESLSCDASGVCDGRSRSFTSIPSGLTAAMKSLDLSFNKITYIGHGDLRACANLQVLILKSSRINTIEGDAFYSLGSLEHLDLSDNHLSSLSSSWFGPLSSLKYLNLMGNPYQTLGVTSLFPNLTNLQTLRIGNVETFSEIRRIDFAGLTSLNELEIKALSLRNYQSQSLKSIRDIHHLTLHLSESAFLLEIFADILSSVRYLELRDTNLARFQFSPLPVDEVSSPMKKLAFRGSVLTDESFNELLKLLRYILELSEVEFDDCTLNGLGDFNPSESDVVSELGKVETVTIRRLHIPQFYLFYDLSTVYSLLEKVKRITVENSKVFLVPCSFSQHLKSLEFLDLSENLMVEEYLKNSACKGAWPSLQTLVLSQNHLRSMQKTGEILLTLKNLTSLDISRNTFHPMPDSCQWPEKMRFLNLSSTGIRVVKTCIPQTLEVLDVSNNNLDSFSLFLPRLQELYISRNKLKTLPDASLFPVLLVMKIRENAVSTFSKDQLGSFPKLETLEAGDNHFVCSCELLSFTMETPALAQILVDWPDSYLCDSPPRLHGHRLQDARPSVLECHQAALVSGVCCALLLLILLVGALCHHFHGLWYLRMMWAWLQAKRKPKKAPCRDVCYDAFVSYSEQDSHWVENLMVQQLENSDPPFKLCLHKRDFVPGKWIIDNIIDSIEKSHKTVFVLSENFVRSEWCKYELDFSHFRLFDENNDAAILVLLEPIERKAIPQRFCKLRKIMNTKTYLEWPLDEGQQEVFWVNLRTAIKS
T4 sequence (O60603 21-784): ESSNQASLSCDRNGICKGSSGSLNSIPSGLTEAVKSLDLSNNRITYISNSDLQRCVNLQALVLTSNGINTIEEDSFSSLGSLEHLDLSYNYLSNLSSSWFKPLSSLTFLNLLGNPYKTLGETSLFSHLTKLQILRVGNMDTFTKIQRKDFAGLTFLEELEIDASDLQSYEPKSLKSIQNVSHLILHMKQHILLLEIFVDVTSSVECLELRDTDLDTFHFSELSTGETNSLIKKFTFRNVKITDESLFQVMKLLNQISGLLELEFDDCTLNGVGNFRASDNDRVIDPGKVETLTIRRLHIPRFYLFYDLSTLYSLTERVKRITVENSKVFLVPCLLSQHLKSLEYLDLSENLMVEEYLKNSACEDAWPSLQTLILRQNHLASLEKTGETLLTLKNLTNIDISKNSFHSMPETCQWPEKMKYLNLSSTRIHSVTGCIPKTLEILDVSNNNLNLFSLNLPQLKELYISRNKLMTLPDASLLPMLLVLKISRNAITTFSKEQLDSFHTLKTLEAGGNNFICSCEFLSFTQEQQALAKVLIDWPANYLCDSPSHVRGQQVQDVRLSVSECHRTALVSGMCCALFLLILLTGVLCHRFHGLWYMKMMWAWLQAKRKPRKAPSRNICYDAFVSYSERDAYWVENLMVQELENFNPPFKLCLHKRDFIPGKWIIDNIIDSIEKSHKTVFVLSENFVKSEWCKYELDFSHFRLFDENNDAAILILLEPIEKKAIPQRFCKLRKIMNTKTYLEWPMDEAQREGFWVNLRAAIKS

Row | ability to activate TLR2 receptor (murine TLR2) (murine TLR2) | ability to activate TLR7 receptors (murine TLR7) (murine TLR7) | ability to activate TLR7 receptors (human TLR7) (human TLR7) | ability to activate TLR2 receptor (human TLR2) (human TLR2) | Compound | induction of NF-κB in RAW-Blue cells [1]
1 | activate TLR2 receptor | activate TLR7 receptors | activate TLR7 receptors | activate TLR2 receptor | CCCCCCCCCCCCCC(=O)OCCSC[C@H](N)C(=O)Nc1ccc(Cn2c(O)nc3c(N)nc(NCCCC)nc32)cc1 [CL555, (R)-2-(2-amino-3-(4-((6-amino-2-(butylamino)-8-hydroxy-9H-purin-9-yl)methyl)phenylamino)-3-oxopropylthio)ethyl tetradecanoate] | activate NF-κB
2 | activate TLR2 receptor | activate TLR7 receptors | activate TLR7 receptors | activate TLR2 receptor | CCCCCCCCCCCCCCCC(=O)OCCSC[C@H](N)C(=O)Nc1ccc(Cn2c(O)nc3c(N)nc(NCCCC)nc32)cc1 [CL556, (R)-2-(2-amino-3-(4-((6-amino-2-(butylamino)-8-hydroxy-9H-purin-9-yl)methyl)phenylamino)-3-oxopropylthio)ethyl palmitate] | activate NF-κB
3 | activate TLR2 receptor | activate TLR7 receptors | activate TLR7 receptors | activate TLR2 receptor | CCCCCCCCCCCCCCCCCC(=O)OCCSC[C@H](N)C(=O)Nc1ccc(Cn2c(O)nc3c(N)nc(NCCCC)nc32)cc1 [CL557, (R)-2-(2-amino-3-(4-((6-amino-2-(butylamino)-8-hydroxy-9H-purin-9-yl)methyl)phenylamino)-3-oxopropylthio)ethyl stearate] | activate NF-κB

Source: patent US9567336B2, “Conjugated TLR7 and/or TLR8 and TLR2 agonists” (CAYLA, priority 2012, dated 2017)
